From patent publication US9913843B2, “Protein kinase C inhibitors and uses thereof” (Rigel Pharmaceuticals, Inc., priority 2012, dated 2018)
Where two headings read alike, the source gives them in different places.

Tested on: PKC mediated IL-2 production in human primary T cells
Assay: IL-2 ELISA, human primary T cell, anti CD3+CD28+ (whole cell functional assay for PKC mediated IL-2 production)
Assay type: cell-based
Description: Human primary T cells were prepared as follows. Fresh PBMC's from All Cells (Cat # PB002) were re-suspended in RPMI (RPMI-1640 with L-Glutamine; Mediatech, Inc., Herndon Va., cat. #10-040-CM) with 10% FBS and seeded into flasks and incubated at 37° C. for 2 hours to allow the monocytes to adhere. The non-adherent cells were then centrifuged and re-suspended in RPMI medium containing 40 U/ml IL2 and seeded into a flask pre-coated with 1 μg/ml aCD3 and 5 ug/ml aCD28 (Anti-Human CD3, BD Pharmingen Catalog #555336, Anti-Human CD28, Beckman Coulter Catalog #IM1376). The cells were stimulated for 3-4 days, then transferred to a fresh flask and maintained in RPMI (RPMI-1640 with L-Glutamine; Mediatech, Inc., Herndon Va., cat. #10-040-CM) with 10% FBS and 40 U/ml IL-2.
Human primary T cells (100,000 cells per well) were pre-incubated with or without test compound in RPMI-1640 with L-Glutamine and 10% FBS for 1 hour at 37° C. Cells were then stimulated by transferring them to round-bottom 96-well plates pre-coated with 1 μg/ml aCD3 and 5 μg/ml aCD28. For counter assay, cells were instead stimulated by adding 8× stock solutions of PMA and ionomycin in RPMI-1640 with L-Glutamine and 10% FBS (for final concentrations of 0.5 ng/ml PMA and 0.1 μM ionomycin, both from Calbiochem). Cells were incubated at 37° C. for 24 hours before 100 μL supernatants were harvested for quantification of IL-2 by ELISA using Human IL-2 Duoset ELISA Kit from R and D Systems, Cat. # DY202E.
Compounds 1-156 were tested in a whole cell functional assay for PKC mediated IL-2 production as follows. Human primary T cell isolation and culture: Human primary T cells were prepared as follows. Whole blood was obtained from a healthy volunteer, mixed 1:1 with PBS, layered on to Ficoll Hypaque (Amersham Pharmacia Biotech, Piscataway, N.J., Catalog #17-1440-03) in 2:1 blood/PBS:ficoll ratio and centrifuged for 30 minutes at 4° C. at 1750 rpm. The cells at the serum: ficoll interface were recovered and washed twice with 5 volumes of PBS. These freshly isolated human peripheral blood mononuclear cells were cultured in Yssel's medium containing 40 U/ml IL2 in a flask pre-coated with 1 μg/ml aCD3 and 5 μg/ml aCD28 (Anti-Human CD3, BD Pharmingen Catalog #555336, Anti-Human CD28, Beckman Coulter Catalog #IM1376). The cells were stimulated for 3-4 days, then transferred to a fresh flask and maintained in RPMI (RPMI-1640 with L-Glutamine; Mediatech, Inc., Herndon Va., cat. #10-040-CM) with 10% FBS and 40 U/ml IL-2. The primary T-cells were then washed twice with PBS to remove the IL-2.
Primary T cell stimulation and IL2 ELISA: Human primary T cells (100,000 cells per well) were pre-incubated with or without test compound in Yssel's medium for 1 hour at 37° C. Cells were then stimulated by transferring them to round-bottom 96-well plates pre-coated with 1 μg/ml aCD3 and 5 μg/ml αCD28. For counter assay, cells were instead stimulated by adding 8× stock solutions of PMA and ionomycin in Yssels (for final concentrations of 0.5 ng/ml PMA and 0.1 uM ionomycin, both from Calbiochem). Cells were incubated at 37° C. for 24 hours before 100 μL supernatants were harvested for quantification of IL-2 by ELISA using Human IL-2 Duoset ELISA Kit from R and D Systems, Cat. # DY202E.

[1] = 24 h, human primary T cells stimulated with anti-CD3 + anti-CD28, IL-2 by ELISA, read-out: IC50 for blocking IL-2 production
[2] = human primary T cells stimulated with anti-CD3 + anti-CD28, 24 h, IL-2 by ELISA, 8 pt, read-out: IL2 ELISA, Human primary T cell, anti-CD3 + CD28, 8 pt (IC50)

SMILES	IC50 [1] [nM]	IC50 [2] [nM]
N#Cc1cc(Nc2ncc(Cl)c(NC[C@@H]3CCCN4CCCC[C@H]34)n2)c(F)cc1C1CC1 [Compound 42, 5-(4-(((1S,9aR)-octahydro-1H-quinolizin-1-yl)methylamino)-5-chloropyrimidin-2-ylamino)-2-cyclopropyl-4-fluorobenzonitrile]	< 30000	348
COc1cc(Nc2ncc(Cl)c(NC[C@@H]3CCCN4CCCC[C@H]34)n2)cc(OC)c1 [Compound 43, 5-chloro-N4-(((1S,9aR)-octahydro-1H-quinolizin-1-yl)methyl)-N2-(3,5-dimethoxyphenyl)pyrimidine-2,4-diamine]	< 30000	412
O=c1[nH]c2cc(Nc3ncc(Cl)c(NC[C@@H]4CCCN5CCCC[C@H]45)n3)ccc2o1 [Compound 44, 5-(4-(((1S,9aR)-octahydro-1H-quinolizin-1-yl)methylamino)-5-chloropyrimidin-2-ylamino)benzo[d]oxazol-2(3H)-one]	< 30000	1180
Fc1ccc(-n2nnnc2C2CC2)cc1Nc1ncc(F)c(NC[C@@H]2CCCN3CCCC[C@H]23)n1 [Compound 45, N2-(5-(5-cyclopropyl-1H-tetrazol-1-yl)-2-fluorophenyl)-5-fluoro-N4-(((1S,9aR)-octahydro-1H-quinolizin-1-yl)methyl)pyrimidine-2,4-diamine]	< 30000	224
Fc1cc(C2CC2)c(-n2cnnn2)cc1Nc1nccc(NC[C@@H]2CCCN3CCCC[C@H]23)n1 [Compound 46, N2-(4-cyclopropyl-2-fluoro-5-(1H-tetrazol-1-yl)phenyl)-N4-(((1S,9aR)-octahydro-1H-quinolizin-1-yl)methyl)pyrimidine-2,4-diamine]	< 30000	1120
Cc1ccc(Nc2nccc(NC[C@@H]3CCCN4CCCC[C@H]34)n2)cc1-n1cnnn1 [Compound 47, N4-(((1S,9aR)-octahydro-1H-quinolizin-1-yl)methyl)-N2-(4-methyl-3-(1H-tetrazol-1-yl)phenyl)pyrimidine-2,4-diamine]	< 30000	649
Cn1nnn(-c2cc(Nc3nccc(NC[C@@H]4CCCN5CCCC[C@H]45)n3)c(F)cc2C2CC2)c1=O [Compound 48, 1-(5-(4-(((1S,9aR)-octahydro-1H-quinolizin-1-yl)methylamino)pyrimidin-2-ylamino)-2-cyclopropyl-4-fluorophenyl)-4-methyl-1H-tetrazol-5(4H)-one]	< 30000	3820
Cc1nnnn1-c1cc(Nc2nccc(NC[C@@H]3CCCN4CCCC[C@H]34)n2)ccc1F [Compound 49, N2-(4-fluoro-3-(5-methyl-1H-tetrazol-1-yl)phenyl)-N4-(((1S,9aR)-octahydro-1H-quinolizin-1-yl)methyl)pyrimidine-2,4-diamine]	< 30000	897
Cc1nnnn1-c1ccc(F)c(Nc2nccc(NC[C@@H]3CCCN4CCCC[C@H]34)n2)c1 [Compound 50, N2-(2-fluoro-5-(5-methyl-1H-tetrazol-1-yl)phenyl)-N4-(((1S,9aR)-octahydro-1H-quinolizin-1-yl)methyl)pyrimidine-2,4-diamine]	< 30000	2000
COc1ccc(Nc2nccc(NC[C@@H]3CCCN4CCCC[C@H]34)n2)cc1-n1nnnc1C [Compound 51, N4-(((1S,9aR)-octahydro-1H-quinolizin-1-yl)methyl)-N2-(4-methoxy-3-(5-methyl-1H-tetrazol-1-yl)phenyl)pyrimidine-2,4-diamine]	< 30000	532
COc1cc(Nc2nccc(NC[C@@H]3CCCN4CCCC[C@H]34)n2)cc(-n2nnnc2C)c1 [Compound 52, N4-(((1S,9aR)-octahydro-1H-quinolizin-1-yl)methyl)-N2-(3-methoxy-5-(5-methyl-1H-tetrazol-1-yl)phenyl)pyrimidine-2,4-diamine]	< 30000	442
N#Cc1cccc(Nc2nccc(NC[C@@H]3CCCN4CCCC[C@H]34)n2)c1 [Compound 53, 3-(4-(((1S,9aR)-octahydro-1H-quinolizin-1-yl)methylamino)pyrimidin-2-ylamino)benzonitrile]	< 30000	2530
Cc1ccc(Nc2nccc(NC[C@@H]3CCCN4CCCC[C@H]34)n2)cc1C#N [Compound 54, 5-(4-(((1S,9aR)-octahydro-1H-quinolizin-1-yl)methylamino)pyrimidin-2-ylamino)-2-methylbenzonitrile]	< 30000	1100
N#Cc1cc(Nc2nccc(NC[C@@H]3CCCN4CCCC[C@H]34)n2)ccc1C1CC1 [Compound 55, 5-(4-(((1S,9aR)-octahydro-1H-quinolizin-1-yl)methylamino)pyrimidin-2-ylamino)-2-cyclopropylbenzonitrile]	< 30000	607
N#Cc1cc(Nc2nccc(NC[C@@H]3CCCN4CCCC[C@H]34)n2)c(F)cc1C1CC1 [Compound 56, 5-(4-(((1S,9aR)-octahydro-1H-quinolizin-1-yl)methylamino)pyrimidin-2-ylamino)-2-cyclopropyl-4-fluorobenzonitrile]	< 30000	3800
COc1cc(Nc2nccc(NC[C@@H]3CCCN4CCCC[C@H]34)n2)cc(OC)c1 [Compound 57, N4-(((1S,9aR)-octahydro-1H-quinolizin-1-yl)methyl)-N2-(3,5-dimethoxyphenyl)pyrimidine-2,4-diamine]	< 30000	3590
O=c1[nH]c2cc(Nc3nccc(NC[C@@H]4CCCN5CCCC[C@H]45)n3)ccc2o1 [Compound 58, 5-(4-(((1S,9aR)-octahydro-1H-quinolizin-1-yl)methylamino)pyrimidin-2-ylamino)benzo[d]oxazol-2(3H)-one]	< 30000	18600
Cc1cnc(Nc2cc(-n3cnnn3)c(C3CC3)cc2F)nc1NC[C@@H]1CCCN2CCCC[C@H]12 [Compound 59, N2-(4-cyclopropyl-2-fluoro-5-(1H-tetrazol-1-yl)phenyl)-N4-(((1S,9aR)-octahydro-1H-quinolizin-1-yl)methyl)-5-methylpyrimidine-2,4-diamine]	< 30000	160
Cc1ccc(Nc2ncc(C)c(NC[C@@H]3CCCN4CCCC[C@H]34)n2)cc1-n1cnnn1 [Compound 60, N4-(((1S,9aR)-octahydro-1H-quinolizin-1-yl)methyl)-5-methyl-N2-(4-methyl-3-(1H-tetrazol-1-yl)phenyl)pyrimidine-2,4-diamine]	< 30000	1360
Cc1cnc(Nc2cc(-n3nnn(C)c3=O)c(C3CC3)cc2F)nc1NC[C@@H]1CCCN2CCCC[C@H]12 [Compound 61, 1-(5-(4-(((1S,9aR)-octahydro-1H-quinolizin-1-yl)methylamino)-5-methylpyrimidin-2-ylamino)-2-cyclopropyl-4-fluorophenyl)-4-methyl-1H-tetrazol-5(4H)-one]	< 30000	1980
Cc1cnc(Nc2ccc(F)c(-n3nnnc3C)c2)nc1NC[C@@H]1CCCN2CCCC[C@H]12 [Compound 62, N2-(4-fluoro-3-(5-methyl-1H-tetrazol-1-yl)phenyl)-N4-(((1S,9aR)-octahydro-1H-quinolizin-1-yl)methyl)-5-methylpyrimidine-2,4-diamine]	< 30000	1870
Cc1cnc(Nc2cc(-n3nnnc3C)ccc2F)nc1NC[C@@H]1CCCN2CCCC[C@H]12 [Compound 63, N2-(2-fluoro-5-(5-methyl-1H-tetrazol-1-yl)phenyl)-N4-(((1S,9aR)-octahydro-1H-quinolizin-1-yl)methyl)-5-methylpyrimidine-2,4-diamine]	< 30000	1160
